Test results as given in ChEMBL document CHEMBL1143375 (Bioorg Med Chem Lett, 2009).

How the values were obtained:
[1] = target: T1, Prostaglandin G/H synthase 2 (Homo sapiens, UniProt P35354); assay: Inhibition of human recombinant COX2 by enzyme immuno assay
T1 sequence (P35354 whole entry): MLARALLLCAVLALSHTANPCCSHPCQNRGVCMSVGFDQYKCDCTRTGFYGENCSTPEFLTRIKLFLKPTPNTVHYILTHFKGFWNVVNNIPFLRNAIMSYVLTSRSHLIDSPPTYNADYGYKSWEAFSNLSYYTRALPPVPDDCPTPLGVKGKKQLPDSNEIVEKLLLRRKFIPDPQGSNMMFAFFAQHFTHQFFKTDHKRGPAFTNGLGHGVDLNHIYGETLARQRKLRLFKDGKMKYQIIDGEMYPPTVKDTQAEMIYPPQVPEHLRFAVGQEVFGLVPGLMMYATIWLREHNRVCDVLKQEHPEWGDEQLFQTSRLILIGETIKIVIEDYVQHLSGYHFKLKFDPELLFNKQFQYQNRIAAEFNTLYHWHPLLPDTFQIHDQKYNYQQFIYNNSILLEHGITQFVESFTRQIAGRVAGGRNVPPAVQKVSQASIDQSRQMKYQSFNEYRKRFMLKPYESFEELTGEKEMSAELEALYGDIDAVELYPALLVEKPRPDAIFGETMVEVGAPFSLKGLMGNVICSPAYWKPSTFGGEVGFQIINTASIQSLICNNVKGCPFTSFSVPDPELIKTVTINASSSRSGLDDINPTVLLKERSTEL

[2] = Inhibition of potato LOX5; design: species or system Solanum tuberosum
[3] = tested on: Rattus norvegicus; assay: Antiinflammatory activity in orally dosed rat assessed as inhibition of carrageenan-induced paw edema after 3 hrs; assay type: functional; details: po
[4] = target: T2, Prostaglandin G/H synthase 1 (Ovis aries, UniProt P05979)
T2 sequence (P05979 whole entry): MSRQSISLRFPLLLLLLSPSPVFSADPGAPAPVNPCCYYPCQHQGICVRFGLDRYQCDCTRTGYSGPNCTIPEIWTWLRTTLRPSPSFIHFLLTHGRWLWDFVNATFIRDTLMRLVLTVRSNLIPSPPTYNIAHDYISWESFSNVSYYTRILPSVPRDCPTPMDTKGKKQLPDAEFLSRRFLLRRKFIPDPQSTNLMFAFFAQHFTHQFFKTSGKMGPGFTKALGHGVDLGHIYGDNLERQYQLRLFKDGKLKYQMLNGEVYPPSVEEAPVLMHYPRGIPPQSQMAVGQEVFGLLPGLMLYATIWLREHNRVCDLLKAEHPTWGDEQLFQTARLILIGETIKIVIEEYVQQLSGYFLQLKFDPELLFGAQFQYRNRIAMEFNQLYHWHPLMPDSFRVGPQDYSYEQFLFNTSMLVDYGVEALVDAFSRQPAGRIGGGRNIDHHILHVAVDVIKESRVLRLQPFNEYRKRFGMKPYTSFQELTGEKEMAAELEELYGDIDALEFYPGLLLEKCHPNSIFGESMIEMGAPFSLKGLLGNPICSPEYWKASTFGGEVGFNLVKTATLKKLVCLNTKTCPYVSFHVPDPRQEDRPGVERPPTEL
Description: Inhibition of ovine COX1 by enzyme immuno assay

| IC50 [1] | IC50 [2] | IC50 [4] | Compound | ED50 [3] |
| --- | --- | --- | --- | --- |
| 6 µM | 3.5 µM | 5.2 µM | NS(=O)(=O)c1ccc(C#Cc2ccc(=O)n(C(F)F)c2)cc1 | 86.5 mg/kg |
| 5.1 µM | 3.3 µM | 14.1 µM | CS(=O)(=O)c1ccc(C#Cc2ccc(=O)n(C(F)F)c2)cc1 | 68.5 mg/kg |
| 3.7 µM | 3.2 µM | 32.4 µM | CS(=O)(=O)c1cccc(C#Cc2ccc(=O)n(C(F)F)c2)c1 | 66.1 mg/kg |

The next lines start with the compound.

| Compound | IC50 [1] | IC50 [2] | IC50 [4] | ED50 [3] |
| --- | --- | --- | --- | --- |
| CS(=O)(=O)c1ccccc1C#Cc1ccc(=O)n(C(F)F)c1 | 9.4 µM | 3.4 µM | > 100 µM | > 100 mg/kg |
| CC(=O)Oc1ccccc1C(=O)O [ASPIRIN] | – | – | – | 129 mg/kg |
| O=C(O)/C=C/c1ccc(O)c(O)c1 [CAFFEIC ACID] | – | 4 µM | – | – |
| CC(C)Cc1ccc(C(C)C(=O)O)cc1 (centres undefined) [IBUPROFEN] | – | – | – | 67.4 mg/kg |
